Earlier results in patent US20060217788A1, “Method of using laser induced injury to activate topical prodrugs” (priority 2004, published 2006).
Where no end group is shown, it is not given here. The star is where a group is joined. Palmitoyl = CCCCCCCCCCCCCCCC(=O)*

Experiments:
fibroblast cultures = settings: in vitro
[1] = test system: wrinkle improvement and photo-aging scores; settings: 3 ppm, clinical studies
[2] = test system: MMP-1, -2, -3, -7, -9 and -13

KTTKS [pentapeptide, subfragment of the carboxyl-terminal propeptide of type I collagen]
production of matrix components including collagen I, III and fibronectin (fibroblast cultures): increased production

N-Palmitoyl-Lys-Thr-Thr-Lys-Ser (Palmitoyl-KTTKS) [Pal-KTTKS, pentapeptide conjugated to a 16-carbon fatty acid moiety, from Sederma]
irritation or changes in barrier function [1]: without significant irritation or changes in barrier function
wrinkle improvement and reduction of photo-aging scores [1]: comparable to retinoids

PLGLAARK [fairly broad spectrum peptide substrate cleavable by MMPs]
cleavage by MMPs [2]: cleavable
